From PubChem BioAssay AID624167 (Sanford-Burnham Center for Chemical Genomics, 2012)
Activity calls are given as the source filed them.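 How the source made its calls: active means mean IC50 for reducing PEG3 promoter reporter signal at or below a set limit, with IC50 above the limit in both counter screens; inactive means the rest, including counter screen hits.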

How the values were obtained:
[1] = target: PEG-3 (UniProt Q6IN02); assay: Peg3 promoter luciferase inhibitors, potency, dose response, cell-based, HeLa, CREF/GAPDH counter-screen panel (AID 624167); conditions: HeLa PEG-Prom luciferase reporter, overnight, CREF/GAPDH counter-screens, mean of runs
Chain of PEG-3 (UniProt Q6IN02) (Q6IN02 whole entry, looked up): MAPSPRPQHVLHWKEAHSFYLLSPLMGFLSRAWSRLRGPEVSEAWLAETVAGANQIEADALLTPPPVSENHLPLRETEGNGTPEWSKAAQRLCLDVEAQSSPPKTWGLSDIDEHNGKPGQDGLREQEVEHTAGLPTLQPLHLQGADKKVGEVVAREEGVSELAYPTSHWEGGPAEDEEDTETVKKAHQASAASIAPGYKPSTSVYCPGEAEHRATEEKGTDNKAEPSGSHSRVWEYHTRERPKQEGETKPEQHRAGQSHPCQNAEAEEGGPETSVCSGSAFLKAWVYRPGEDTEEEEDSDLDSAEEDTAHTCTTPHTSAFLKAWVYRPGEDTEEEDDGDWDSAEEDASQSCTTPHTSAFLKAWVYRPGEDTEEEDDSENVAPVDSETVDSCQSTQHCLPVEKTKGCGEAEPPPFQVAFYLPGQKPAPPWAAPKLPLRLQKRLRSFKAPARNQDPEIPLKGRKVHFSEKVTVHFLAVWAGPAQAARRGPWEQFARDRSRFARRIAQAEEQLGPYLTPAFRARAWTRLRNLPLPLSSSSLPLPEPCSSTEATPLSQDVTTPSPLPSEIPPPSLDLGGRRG

[2] = test system: PEG-3; assay: as above; conditions: HeLa PEG-Prom luciferase reporter, overnight, CREF/GAPDH counter-screens
[3] = run 1, dose range 1, individual replicate IC50 per panel
[4] = run 2, dose range 1, individual replicate IC50 per panel

IC50 [1] | Compound | IC50 [2, 3] [µM] | IC50 [2, 4] [µM]
inactive | Cc1nc(-c2ccc(F)cc2)c(CC(=O)N(C)CC(=O)Nc2ccc(Cl)c(C(F)(F)F)c2)s1 | 26 | 33.8
13.9 µM | CCOC(=O)c1c(NC(C)=O)sc2c(OCC(O)CN(CC)CC)c(Br)ccc12 (centres undefined) | 20.7 | 7.1
inactive | CNC[C@H](CC1CCCCC1)NC[C@H](NCCC1CCCC1)[C@H](C)O | 37.6 | 12.4
11.1 µM | CCCC(=O)NC(c1cccc([N+](=O)[O-])c1)c1ccc2cccnc2c1O (centres undefined) | 3.15 | 19
> 100 µM (inactive) | COc1ccc(-c2cc(C(=O)Nc3ccccc3N3CCOCC3)c3ccccc3n2)cc1OC | > 100 | > 100
inactive | CCOC(=O)c1ccc(NC(=O)C2CCCN(S(=O)(=O)c3ccc(F)cc3)C2)cc1 (centres undefined) | 20.9 | 43.1
inactive | Oc1ccc(C23CCCC2C2(CCCC2)c2ccc(O)cc2O3)c(O)c1 (centres undefined) | 27.2 | 54.4
inactive | COc1cccc(CN(C)C(=O)C(CCSC)NS(=O)(=O)c2ccc3c(c2)OCCO3)c1OC (centres undefined) | 61 | 8.89
inactive | CC(C)c1ccc(-c2nc3ccccc3s2)cc1 | 14 | 40.2
12.7 µM | CCc1ccc(OCCNc2cc(N3CCNC(C)C3)ccc2[N+](=O)[O-])cc1 (centres undefined) | 16.3 | 8.98
12.5 µM | COc1ccc(-c2cc(C(F)F)n3ncc(C(=O)n4ccnc4C)c3n2)cc1 | 18.3 | 6.84
3.17 µM | Cc1nn(C(C)(C)C)c(C)c1/C=N/OC(=O)Nc1ccc(Cl)cc1 | 6.13 | < 0.2
inactive | COCOCCn1cc(CN2CCS(=O)(=O)N(Cc3ccc(-c4ccc(Cl)c(Cl)c4)cc3)C(C(C)C)C2=O)nn1 (centres undefined) | 34.9 | 18
12.3 µM | Oc1c(Cl)cc(Cl)c2cccnc12 | 17.9 | 6.75
19.8 µM | COc1ccc(CN(C)C(=O)c2cc(-c3ccc(C)cc3C)nc3ccccc23)c(OC)c1OC | 14.9 | 24.8
14.6 µM | COc1ccc(CNC(=O)Nc2nc(C(N)Cc3ccc(F)cc3)cs2)cc1 (centres undefined) | 16.6 | 12.5
> 100 µM (inactive) | CCN1C(=O)C(=Cc2cccc(OC)c2Oc2ccc([N+](=O)[O-])cc2[N+](=O)[O-])SC1=S | > 100 | > 100

IC50 [1] | Compound | IC50 [2, 3] [µM] | IC50 [2, 4] [µM]
17.4 µM | Cc1ccc2sc(N(CCCN(C)C)C(=O)c3ccc(S(=O)(=O)N4CCc5ccccc5C4)cc3)nc2c1C | 15.6 | 19.2
13.6 µM | COC(=O)c1ccc(Nc2cc(C)nc3ccc(C)cc23)cc1 | 17.9 | 9.4
11.6 µM | CSc1ccc2c(c1)C(N1CCN(C)CC1)Cc1ccccc1S2 (centres undefined) | 16.9 | 6.17
inactive | COc1cc(NC(=O)Nc2nc(C(N)CCc3ccccc3)cs2)cc(OC)c1OC (centres undefined) | 21.3 | 40.6
inactive | Cc1cc(C)cc(NC(=O)Cn2c(=O)oc3cc(S(=O)(=O)N4CCC(C)CC4)ccc32)c1 | > 100 | 7.9
16.5 µM | CNC(=O)c1ccsc1NC(=O)c1ccc(S(=O)(=O)N2CCc3ccccc32)cc1 | 19.2 | 13.9
12.8 µM | Cc1c(C(=O)Nc2ccc(S(=O)(=O)N(C)C3CCN(C)CC3)cc2)oc2c(Cl)cccc12 | 16.5 | 9.1
inactive | CC(C)CC(NS(=O)(=O)OCC(Cl)(Cl)Cl)c1ccccc1 (centres undefined) | 47.6 | 17.5
inactive | CCOc1cc(CNCCO)cc(Br)c1OCc1ccccc1Cl | 41.2 | 73.4
14.3 µM | CCCCCCCCCCCCCCC(O)C[N+](C)(CCO)CCO (centres undefined) | 17.7 | 11
12.2 µM | COc1ccc(-c2oc3ccc(-c4cc(OC)c(OC)c(OC)c4)cc3c2C#Cc2ccccn2)cc1 | 2.89 | 21.5
inactive | COc1cc(-c2cc(C(=O)N(C)Cc3ccccc3)c3ccccc3n2)cc(OC)c1OC | 69.3 | 72.2
inactive | COc1nc(N)c(C#N)c(-c2ccc(N(C)CCC#N)cc2)c1C#N | 6.32 | 35.8
15.5 µM | O=C(NC1CCCCC1)C(c1cccnc1)N(C(=O)CCl)c1cccc(Cl)c1 (centres undefined) | 17.6 | 13.4
inactive | CC1(C)Oc2cc3oc(-c4cc(O)cc(O)c4)cc3cc2CC1O (centres undefined) | 37.1 | 13.7
inactive | O=S(=O)(Nc1cccc2cccnc12)c1ccccc1 | > 100 | 7.43
